Blank lines part the entries; values can stand above or below the compound they belong to.
What was measured:
[1] = Inhibitory activity (3 uM) against Staphylococcus aureus tyrosyl tRNA synthetase (YRS) using aminoacylation assay
[2] = Inhibitory activity against Staphylococcus aureus tyrosyl tRNA synthetase (YRS) using aminoacylation assay; NI = No inhibition
[3] = Inhibitory activity against Staphylococcus aureus tyrosyl tRNA synthetase (YRS) using aminoacylation assay

inhibition [1]: 71%
SMILES: N[C@@H](Cc1ccc(O)cc1)C(=O)N[C@H](C(=O)O)[C@@H]1OC[C@H](O)[C@@H](O)[C@H]1O

IC50 [2]: Not Active
SMILES: N[C@@H](Cc1ccc(O)cc1)C(=O)NC(C(=O)O)[C@@H]1O[C@H](CO)[C@@H](O)[C@H](O)[C@H]1O (stereo partly drawn)

IC50 [3]: 100 nM
SMILES: N[C@@H](Cc1ccc(O)cc1)C(=O)N[C@H](C(=O)O)[C@@H]1OC[C@H](O)[C@H](O)[C@H]1O

From ChEMBL document CHEMBL1134225, “Potent synthetic inhibitors of tyrosyl tRNA synthetase derived from C-pyranosyl analogues of SB-219383” (Bioorg Med Chem Lett, 2001)
